{"source": "patent US4668620A", "about": "“Reducing background interference activity in enzyme-label immunoassays” (Syntex (U.S.A.) Inc., priority 1984, dated 1987)", "system": "β-galactosidase", "assay": "Testing effects of serum on native enzyme activity with DUG", "format": "biochemical", "details": "0.02 mM DUG, 37°, 10 second delay, 30 second read", "description": "(2) Testing effects of serum on native enzyme activity with DUG:\nThe procedure of c (1) above was followed using 50 µl of 1.75×PBS,N3, Mg+0.5% RSA and 50 μ1 β-galactosidase in place of serum and conjugate, respectively, and […] of 0.02mM DUG in 1.75×PBX, N3, Mg +0.5% RSA.\nThe fluorescence rate was measured at 37° , 10 second delay, 30 second read."}
{"substance": "β-galactosidase: native active enzyme used as label in the immunoassay", "values": [{"measurement": "ΔF/30 sec., Buffer", "setting": "native enzyme in buffer", "value": "250 ΔF/30 sec."}, {"measurement": "ΔF/30 sec., Serum", "setting": "native enzyme in serum", "value": "230 ΔF/30 sec."}]}
